Test results: US7939499B2, “Method for increasing cardiac mass and performance” (Trustees of Dartmouth College, priority 2005, dated 2011)
Marks after values point to notes of the source that are not given here. Where no end group is shown, it is not given here.

Legend:
Assay type in all cases: in vivo, mouse
[1] = test system: transgenic mice with myocardial-specific expression of PR39; assay: Endothelial cell mass (I131-labeled anti-PECAM antibody perfusion) and direct capillary counting in PR39 transgenic mice
From the text: (§1) To monitor PR39 expression, β-galactosidase was expressed bicistronically.
Three weeks after induction of PR39 expression in 6-8 week-old mice, a significant increase in the endothelial cell mass was observed as determined by in vivo perfusion with an I^131-labeled anti-PECAM antibody and direct capillary counting (Table 1).
(§2) Full-length porcine PR39 cDNA was inserted into a tetracycline-responsive vector system and a tetracycline transactivator was placed under transcriptional control of an α-myosin heavy chain promoter. The resulting tetracycline-responsive system was microinjected into fertilized mouse eggs. PCR analysis of genomic DNA from mouse tail tissue confirmed integration into the mouse genome. Independent transgenic lines were established and used for the analysis disclosed herein.

[2] = test system: transgenic mice with myocardial-specific expression of PR39; assay: Heart size, myocardial mass and myocyte cross-sectional area after induction of PR39 expression
From the text: as §1
Six weeks after induction of PR39 expression, a large increase in the heart size was observed that was attributable to increased ventricular wall thickness and a mild increase in the left ventricle chamber size.
as §2

[3] = test system: transgenic mice with myocardial-specific expression of PR39; assay: Echocardiographic and pressure-volume loop analysis of myocardial function
Method: as §1
To determine whether this endothelial-driven myocardial hypertrophy affected cardiac performance, echocardiographic and pressure-volume loop analysis of myocardial function was performed following induction of PR39 expression. In agreement with morphologic observations, heart expressing PR39 had somewhat larger left ventricular end-diastolic volume and end-diastolic diameter (Table 2). There was a significant enhancement of systolic performance as indicated by decreased left ventricle end-systolic volume and increases in the […], +dP/dT, maximal-generated left ventricle pressure and cardiac output (Table 2). Unexpectedly, there was also a significant improvement in diastolic function as indicated by reduced tau and −dP/dt (Table 2).
To evaluate the robustness of the observed increase in myocardial size and functional improvement, PR39 expression was shut off six weeks after its induction and the mice were re-examined three weeks later. Both the increase in the myocardial mass and improvements in the systolic and diastolic function were maintained at that time.
as §2

[4] = test system: ANF, βMHC and skeletal α-actin gene expression; assay: Expression of myocyte hypertrophy markers; settings: 6 weeks after PR39 expression induction (not at 3 weeks)
From the text: (§3) To gain further insight into the nature of the hypertrophy process, expression of myocyte hypertrophy markers was examined. […] These findings are consistent with an increase in endothelial cell mass, […] an increase in cardiac size, largely driven by myocyte hypertrophy accompanied by an induction of a typical hypertrophic response.

[5] = test system: endothelial cells and cardiac myocytes; assay: Immunocytochemical staining with anti-Ki67 antibody (proliferation); settings: after induction of PR39 expression
From the text: as §3

[6] = six weeks after induction of PR39 expression
[7] = six weeks following induction of PR39 expression
[8] = six weeks induction of PR39 expression followed by 3 weeks repression

Substance: PR39: Angiogenic proline/arginine-rich peptide; full-length porcine PR39 cDNA expressed myocardial-specifically in tetracycline-regulated transgenic mice (mature peptide SEQ ID NO:3) (RRRPRPPYLPRPRPPPFFPPRLPPRIPPGFPPRFPPRFP-NH2; listed as Sus scrofa)
- Capillary density per gram of myocardial tissue [1, 6]: returned to values seen in control mice
- Capillary Density (Capillary/50 μm^2) ([1]; three weeks after induction of PR39 expression in 6-8 week-old mice): 5.90 ± 0.12 Capillary/50 μm^2
- Anti-PECAM (μg antibody/gram tissue) ([1]; three weeks after induction of PR39 expression in 6-8 week-old mice, endothelial cell mass): 0.52 ± 0.07 μg antibody/gram tissue
- Increase in myocardial mass ([2]; cardiac-specific overexpression of PR39): 50%
- Heart size [2, 6]: 0.15±0.01 gram
- Myocyte area increase (cross-sectional area of enzymatically dispersed cardiac myocytes) [2, 6]: 30%
- Heart enlargement ([2]; six weeks after induction of PR39 expression, vs non-transgenic mice): 35%
- Heart size after repression of PR39 expression ([2]; six weeks induction, then 3 weeks repression of PR39 expression): remained unchanged
- Increase in myocardial mass and improvements in systolic and diastolic function after shut-off ([3]; PR39 expression shut off six weeks after induction, re-examined three weeks later): maintained
- Left Ventricle Mass [3, 7]: 74 ± 1.1^a mg
- Left Ventricle internal dimension systolic [3, 7]: 2.28 ± 0.20^c mm
- Cardiac output [3, 8]: 9046 ± 239^a μL/minute
- Ejection fraction [3, 8]: 85.06 ± 0.76^a %
- End diastolic pressure [3, 8]: 7.17 ± 0.17^a mmHg
- End diastolic volume [3, 8]: 18.78 ± 0.31^a μL
- End systolic pressure [3, 8]: 70.49 ± 0.99^b mmHg
- End systolic volume [3, 8]: 3.26 ± 0.15^a μL
- Maximum dP/dt [3, 8]: 8809 ± 167^a mmHg/second
- Maximum pressure [3, 8]: 92.26 ± 0.54^a mmHg
- Maximum volume [3, 8]: 20.15 ± 0.29^a μL
- Minimum dP/dt [3, 8]: −7503 ± 123^a mmHg/second
- Minimum pressure [3, 8]: 3.79 ± 0.15^a mmHg
- Minimum volume [3, 8]: 2.86 ± 0.13^a μL
- Stroke volume [3, 8]: 17.29 ± 0.32^a μL
- Tau-w [3, 8]: 6.0 ± 0.1^a msec
- ANF, βMHC and skeletal α-actin gene expression [4]: marked increase
- Proliferation of endothelial cells between myocyte bundles (anti-Ki67) [5]: increased proliferation
- Proliferation of cardiac myocytes (anti-Ki67) ([5]; multiple sections): no proliferation
